We go through one substance from patent US11597739B2, “Enhancing CD8+ T cells for adoptive T cell therapy by inhibiting PTPN1 (PTP1B) and PTPN2 (TC-PTP)” (The Royal Institution for the Advancement of …, priority 2017, dated 2023).

For this assay, the target named is TC-PTP (Homo sapiens (Human), UniProt P17706). As to the kind of experiment: Enzyme assay for TC-PTP. In kind it is biochemical. The following applies: inhibition of TC-PTP enzymatic activity. On the procedure: 1) Enzyme Assay for TC-PTP
The assay was carried out at room temperature in 96 well plates. The reaction mixture in 170 μl contained 50 mM Bis-Tris (pH=6.3), 2 mM EDTA, 5 mM N,N′-dimethyl-N,N′bis(mercaptoacetyl)hydrazine (DMH) and 10 μM fluorescein diphosphare (FDP) or 6,8-difluoro-4-methylumbelliferyl phosphate (DiFMUP). 10 μl of 10 concentrations (serial dilution) of the test compound (inhibitor) dissolved in DMSO or DMSO alone for control was added to each well and the plate was mixed for 2 min. The reaction was initiated by adding 20 μl of diluted TC-PTP (50 nM for FDP, 0.5 nM for DiFMUP in 50 mM Bis/Tris (pH=6.3), 2 mM EDTA, 5 mM DMH, 20% glycerol and 0.01% Triton X-100. The phosphatase activity was followed by monitoring the appearance of the fluorescent product fluorescein monophosphate (FMP) or 6,8-difluoro-7-hydroxyl-4-coumarin (DiFMU) continuously for 15-30 min, using the Spectromax Gemini fluorescent plate reader ([…]) with excitation of 440 nm and emission at 530 nm (cutoff filter at 525 nm) for FDP and excitation at 360 nm and emission at 450 nm (cutoff filter at 435 nm) for DiFMUP. All the assays were done at least in duplicate. The initial rate of FMP or DiFMU formation is plotted against the concentration of inhibitor and the data was fitted to 4-parameter equation and the inflection point of the fit is the IC50.

The IC50 is the midpoint of a concentration-inhibition curve.

Chain of TC-PTP (P17706 whole entry, species assumed): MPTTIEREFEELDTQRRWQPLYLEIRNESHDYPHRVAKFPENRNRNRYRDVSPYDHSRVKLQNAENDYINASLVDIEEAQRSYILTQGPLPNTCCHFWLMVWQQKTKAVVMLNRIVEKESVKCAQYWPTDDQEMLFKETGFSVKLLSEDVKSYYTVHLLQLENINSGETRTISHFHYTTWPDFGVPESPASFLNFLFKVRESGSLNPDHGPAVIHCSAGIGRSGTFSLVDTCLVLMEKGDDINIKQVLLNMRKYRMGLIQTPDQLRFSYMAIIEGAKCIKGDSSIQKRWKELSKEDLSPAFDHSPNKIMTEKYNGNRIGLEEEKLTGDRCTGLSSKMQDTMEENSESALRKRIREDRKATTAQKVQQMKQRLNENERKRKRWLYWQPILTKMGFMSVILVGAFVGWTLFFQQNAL

On to “[(3-BROMO-7-CYANO-2-NAPHTHYL)(DIFLUORO)METHYL]PHOSPHONATE [Ex. 10]”, for which half-maximal inhibition (IC50) was put at 490 nM.
